Data on eleven compounds can be found in EP0381514B1, “Use of N-methyl-sphingosine as inhibitor of cell growth” (The Biomembrane Institute, priority 1989, dated 1990).

Test [1] has as its target C-kinase. As to the kind of experiment: Inhibition of C-kinase activity (liposome method, histone III-S, 32P-ATP). The class given is biochemical, human. Details: C-kinase ³²P incorporation: unit: cpm. The note with it: for Inhibition of C-kinase (concentration in »M yielding 50% inhibition): C-kinase from A431 cells; for inhibitory activity of C-kinase: conclusion in words from Tables I, II and Figs. 2, 3; for C-kinase ³²P incorporation %: relative to phosphatidyl-serine, diolein, Ca⁺² control = 100. The protocol:
A431 cells were grown in a mixture of DME and Ham's F-12 medium (weight ratio 1:1) supplemented with 10% fetal calf serum (FCS). […] Briefly, cells were scraped by rubber policeman, suspended in 50 ml of 20 mM Tris-HCL (pH 7.5), 2 mM EDTA, 0.5 mM EGTA, 0.15 U/ml aprotinine, and 0.25 M sucrose, and homogenized by 50 strokes at 4°C in a Dounce homogenizer (40-ml size, Wheaton). The homogenized cells were ultracentrifuged at 100,000 xg for 60 min. The supernatant was purified on a DE52 column equilibrated with 20 mM Tris-HCL (pH 7.5), 2 mM EDTA, and 0.5 mM EGTA (buffer B), and washed well with this buffer. The C-kinase activity was eluted with buffer B containing 0.1 M NaCl.
The lipid mixture was sonicated in 30 »l of 20 mM Tris-HCl (pH 7.5) for 30 min. The liposomes in the tube were supplemented with the reaction mixture, consisting of 25 mM Tris-HCl (pH 7.5), 10 mM MgCl₂, 400 »M EDTA, 50 »M EGTA, 500 »M CaCl₂, 200 »g/ml Histone III-S, and 20 »M gamma-[³²P]-ATP (2 x 10⁶ cpm); final volume was 90 »l.
The reaction was initiated by addition of 10 »l of C-kinase fraction (containing 1-2 »g protein) prepared as described above, and the reaction mixture was incubated for 10 min at 30°C. […] The value without phosphatidylserine, 1,2-diolein, or Ca²⁺ were used as a control.

Test [2] has as its system human colonic cancer cells HRT-18. As to the kind of experiment: Inhibition of growth of human colonic cancer cells HRT-18 in vitro (cell count after 3 days). The class given is cell-based. The note with it: HRT-18, 3 days. Here is the method: HRT-18 cells were seeded in plates in Dulbecco's modified Eagle's medium supplemented with 10% fetal calf serum (5 x 10⁵ cells per each 3 cm plate). After the cells were cultured overnight, the medium was replaced with the same media containing various concentrations of N,N-dimethyl- or N-monomethyl sphingosine, N-acetylsphingosine, and ceramide as shown in Fig. 4. Cultures were continued for 3 days, and cell numbers were counted. The percent inhibition of cell numbers in the presence of reagents was calculated as percent of control dishes, which contained no sphingosine derivatives.

Test [3] relates to HRT18 tumor cells. Put plainly: Inhibition of in vivo growth of HRT18 tumor cells in nude mice. The note with it: 44 »g/200 »l in PBS injected at day 7, 11 and 15; tumor weight estimated by size; significant (p>0.005 as printed). The protocol: The effect of N,N-dimethyl-sphingosine (prepared from naturally occurring sphingolipid as described in Example 3) on in vivo growth of HRT18 tumor cells in nude mice was determined as follows.
1 x 10⁶ HRT-18 human colonic cancer cells were inoculated into nude mice at day 0 by known methods. N,N-dimethylsphingosine emulsified in phosphate buffered saline (PBS) (44 »g/200 »l) was injected at day 7, 11, and 15. Tumor growth weight in mg was estimated by the size of the tumors. Each group consisted of ten animals.

For test [4], the system named is human peripheral blood lymphocytes. Put plainly: Inhibition of IL-2-dependent mitogenesis (3H-thymidine incorporation), human lymphocytes. The class given is cell-based. The note with it: 0.5 U/ml IL-2. Here is the method:
Human peripheral blood lymphocytes isolated from human blood by known methods were cultured in RPMI containing 0.5 U/ml IL-2. […] Mitogenesis was measured by incorporation of ³H-thymidine into DNA over a 5-hour period. Percent inhibition as compared to the control value (without addition of any inhibitor) was determined.
Background: Incorporation of labelled thymidine or its analogues reports DNA synthesis.

The test system is the same in test [5]. As to the kind of experiment: Inhibition of concanavalin-A-induced mitogenesis (3H-thymidine uptake), human lymphocytes. The class given is cell-based. The note with it: 2 »g con-A/ml. Here is the method: Peripheral blood lymphocytes isolated from human blood by known methods were cultured in RPMI containing 2 »g con-A/ml for 18 hours in multiple wells. Subsequently, various concentrations of N,N-dimethylsphingosine, sphingosine, or N-acetylsphingosine as shown in Fig. 6 were added to the culture media and cultured continuously for 5 hours, followed by addition of ³H-thymidine. The thymidine uptake over a 5-hour period was determined. The % inhibition of mitogenesis was calculated based on control value (without addition of any inhibitor).

For test [6], the system named is mouse splenocytes. Put plainly: Inhibition of concanavalin-A-induced mitogenesis, mouse splenocytes. The class given is cell-based. Here is the method:
The effect of N,N-dimethyl-sphingosine (prepared from naturally occurring sphingolipid as described in Example 3) on conconavalin-A (con-A) -induced mitogenesis was tested using human peripheral blood lymphocytes and mouse splenocytes.
Inhibition of con-A-induced mitogenisis of mouse splenocytes was determined in an analogous manner.

Test [7] deals with mouse splenocytes. Put plainly: Inhibition of IL-2-dependent mitogenesis, mouse splenocytes. It counts as cell-based. Here is the method: The effect of N,N-dimethyl-sphingosine (prepared from naturally occurring sphingolipid as described in Example 3) on IL-2-dependent mitogenesis was tested using human peripheral blood lymphocytes and mouse splenocytes.
Inhibition of IL-2-induced mitogenesis of mouse splenocytes was determined in an analogous manner.

As to “Lactosylsphingosine [reference compound]”, in test [1], the “Inhibition of C-kinase (concentration in »M yielding 50% inhibition)” value is recorded as “no inhibition”.
Consider `CCCCCCCCCCCCC/C=C/[C@@H](O)[C@H](CO)N(C)C` [N,N-dimethyl-sphingosine], for which, in test [2] (at 12.5 »M concentration), the “inhibition of cell growth” value is “significantly inhibited”. Further, in test [3], the inhibition of growth entry is given as “more than 50%”. Besides, the “inhibition of IL-2-dependent mitogenesis” value in test [4] is “invariably inhibited”. Besides, the “inhibition of con-A-dependent growth stimulation” value in test [5] is “greatly inhibited”. For the same compound, the “inhibitory effect on concanavalin-A-induced mitogenesis” value in test [6] is “strong inhibitory effect”. The “inhibitory effect on IL-2-dependent mitogenesis” value in test [7] was “strong inhibitory effect”.
As for `CCCCCCCCCCCCC/C=C/[C@@H](O)[C@H](CO)NC(C)=O` [N-acetylsphingosine, reference compound], in test [2] (at 150 »M concentration), the “inhibition of cell growth” value is listed as “minimum inhibition”. In test [4], the “inhibition of IL-2-dependent mitogenesis” value is recorded as “less so”. The “Inhibition of C-kinase (concentration in »M yielding 50% inhibition)” value in test [1] is on record as “no inhibition”.
With Ceramide [reference compound], the “inhibition of cell growth” value in test [2] (at 150 »M concentration) is given as “minimum inhibition”. Further, the “Inhibition of C-kinase (concentration in »M yielding 50% inhibition)” value in test [1] is listed as “no inhibition”.
For `CCCCCCCCCCCCC/C=C/[C@H](O)[C@H](CO)N(C)C` [N,N-dimethyl-L-threo-sphingosine], the “inhibition of cell growth” value in test [2] (at 12.5 »M concentration) was “significantly inhibited”.
As to `CCCCCCCCCCCCC/C=C/[C@H](O)[C@H](N)CO` [L-erythro-sphingenine, L(-)-erythro-sphingenine, reference compound], the “inhibitory activity of C-kinase” value in test [1] was “weak and similar inhibitory activity”. Also, the “C-kinase ³²P incorporation” value in test [1] (lipid added at 50 »M) is given as 18549 ± 2760. Also, the “C-kinase ³²P incorporation %” value in test [1] (lipid added at 50 »M, 50 µM) came to 47 ± 7%.
As to `CCCCCCCCCCCCC/C=C/[C@@H](O)[C@H](CO)N(C)C` [N,N-dimethyl-D-erythro-sphingenine], the “inhibitory activity of C-kinase” value in test [1] is listed as “strikingly strong inhibitory activity”. Further, the “C-kinase ³²P incorporation” value in test [1] (lipid added at 2 »M) came to 34206 ± 1220; in test [1] (lipid added at 10 »M), 20563 ± 1173; in test [1] (lipid added at 25 »M), 15214 ± 377; in test [1] (lipid added at 50 »M) it was 5254. In addition, the “C-kinase ³²P incorporation %” value worked out at 86 ± 3% in test [1] (lipid added at 2 »M, 2 µM); 52 ± 3% in test [1] (lipid added at 10 »M, 10 µM); 38 ± 1% in test [1] (lipid added at 25 »M, 25 µM); 13% in test [1] (lipid added at 50 »M, 50 µM).
Turning to `CCCCCCCCCCCCC/C=C/[C@@H](O)[C@@H](N)CO` [sphingosine], in test [4], the “inhibition of IL-2-dependent mitogenesis” value is given as “less so”.
For the compound `CCCCCCCCCCCCC/C=C/[C@@H](O)[C@@H](N)CO` [D-erythro-sphingenine, D(+)-erythro-sphingenine, reference compound], the “inhibitory activity of C-kinase” value in test [1] was “weak and similar inhibitory activity”. The “C-kinase ³²P incorporation” value in test [1] (lipid added at 50 »M) is 18754 ± 2184. Also, the “C-kinase ³²P incorporation %” value in test [1] (lipid added at 50 »M, 50 µM) is recorded as 47 ± 6%.
For the compound N-monomethyl-sphingosine, the “inhibition of cell growth” value in test [2] (at 12.5 »M concentration) is reported as “significantly inhibited”.
For the compound `CCCCCCCCCCCCC/C=C/[C@H](O)[C@@H](CO)N(C)C` [N,N-dimethyl-L-erythro-sphingenine], in test [1], the “inhibitory activity of C-kinase” value is given as “weaker inhibitory activity”. Further, the “C-kinase ³²P incorporation” value was determined as 37354 ± 1420 in test [1] (lipid added at 2 »M), 25583 ± 1931 in test [1] (lipid added at 10 »M), 21743 ± 577 in test [1] (lipid added at 25 »M) and 11020 in test [1] (lipid added at 50 »M). Also, the “C-kinase ³²P incorporation %” value in test [1] (lipid added at 2 »M, 2 µM) was found to be 95 ± 4%; in test [1] (lipid added at 10 »M, 10 µM), 65 ± 5%; in test [1] (lipid added at 25 »M, 25 µM), 55 ± 2%; in test [1] (lipid added at 50 »M, 50 µM), 28%.
